Experimental findings from patent US20250320193A1, “OXOISOINDOLINYL SUBSTITUTED PIPERIDINEDIONE DERIVATIVE AND USE THEREOF” (GLUETACS THERAPEUTICS (SHANGHAI) CO., LTD., priority 2022, published 2025) are described below.

Assay [1] has as its target IKZF1 (Homo sapiens (Human), UniProt Q13422+Q96SW2). Put plainly: Western blot, substrate protein expression in hPBMC: IKZF1. The assay is classed as cell-based. The conditions noted are these: hPBMC, compound 500 nM, 24 hours, Western blot. Summed up:
(§1)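 hPBMC, 1×10^6 cells/mL, 24 h compound exposure; RIPA lysis, BCA protein assay, SDS-PAGE, NC membrane immunoblot. Densitometry vs internal control → % protein remaining; degradation % = 100% − remaining; DC50 = conc. at 50% of DMSO band signal.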

The target in assay [2] is IKZF3 (Homo sapiens (Human), UniProt Q96SW2+Q9UKT9). Put plainly: Western blot, substrate protein expression in hPBMC: IKZF3. The assay is classed as cell-based. The conditions noted are these: hPBMC, compound 500 nM, 24 hours, Western blot. An outline of the steps: as §1
The target of assay [3] is GSPT1 (Homo sapiens (Human), UniProt P15170+Q96SW2). Put plainly: Western blot, substrate protein expression in hPBMC: GSPT1. The assay is classed as cell-based. The conditions noted are these: hPBMC, compound 500 nM, 24 hours, Western blot. An outline of the steps:
as §1

In assay [4] the target is human Cereblon WT GST-tagged protein (Homo sapiens (Human), UniProt Q96SW2). The experiment in a line: CRBN-binding affinity, HTRF (CEREBLON BINDING kit, CISBIO). The note with it: HTRF inhibitory activity. Summed up: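 Compounds were mixed with GST-tagged human Cereblon WT protein, then with Thalidomide-Red tracer and GST Eu antibody, and binding was read by HTRF. Inhibition rate was calculated from 620 nm emission relative to blank control wells (no protein) and solvent control wells.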
Sequence of human Cereblon WT GST-tagged protein (Q96SW2 whole entry): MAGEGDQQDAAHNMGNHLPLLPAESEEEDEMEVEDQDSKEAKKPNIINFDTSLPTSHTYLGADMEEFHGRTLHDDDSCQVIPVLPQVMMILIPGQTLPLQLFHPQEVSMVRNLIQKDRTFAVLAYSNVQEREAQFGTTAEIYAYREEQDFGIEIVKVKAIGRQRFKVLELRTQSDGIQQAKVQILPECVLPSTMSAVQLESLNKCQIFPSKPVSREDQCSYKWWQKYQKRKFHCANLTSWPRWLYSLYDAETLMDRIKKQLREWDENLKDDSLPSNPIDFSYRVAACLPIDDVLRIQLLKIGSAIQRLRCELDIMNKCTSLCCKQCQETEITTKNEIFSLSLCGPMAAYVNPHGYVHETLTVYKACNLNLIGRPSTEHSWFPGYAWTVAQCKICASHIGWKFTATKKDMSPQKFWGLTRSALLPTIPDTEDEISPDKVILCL

Sequence of GSPT1 (P15170 whole entry): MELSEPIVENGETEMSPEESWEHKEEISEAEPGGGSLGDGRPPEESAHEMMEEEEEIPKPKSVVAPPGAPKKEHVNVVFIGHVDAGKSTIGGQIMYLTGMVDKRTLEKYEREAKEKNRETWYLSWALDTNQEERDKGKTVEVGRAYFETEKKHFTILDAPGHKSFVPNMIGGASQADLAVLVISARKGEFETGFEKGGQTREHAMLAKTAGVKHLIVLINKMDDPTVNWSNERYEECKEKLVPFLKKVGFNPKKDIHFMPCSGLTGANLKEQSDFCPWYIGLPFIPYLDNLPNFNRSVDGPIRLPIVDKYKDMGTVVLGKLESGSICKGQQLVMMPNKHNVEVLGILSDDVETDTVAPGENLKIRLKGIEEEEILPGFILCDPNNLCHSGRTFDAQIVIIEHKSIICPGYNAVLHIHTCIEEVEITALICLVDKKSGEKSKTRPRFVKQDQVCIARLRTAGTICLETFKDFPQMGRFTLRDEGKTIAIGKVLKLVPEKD
Sequence of GSPT1 (Q96SW2 whole entry): as the sequence (Q96SW2 whole entry) above
Sequence of GSPT1 (Q16531 whole entry partner): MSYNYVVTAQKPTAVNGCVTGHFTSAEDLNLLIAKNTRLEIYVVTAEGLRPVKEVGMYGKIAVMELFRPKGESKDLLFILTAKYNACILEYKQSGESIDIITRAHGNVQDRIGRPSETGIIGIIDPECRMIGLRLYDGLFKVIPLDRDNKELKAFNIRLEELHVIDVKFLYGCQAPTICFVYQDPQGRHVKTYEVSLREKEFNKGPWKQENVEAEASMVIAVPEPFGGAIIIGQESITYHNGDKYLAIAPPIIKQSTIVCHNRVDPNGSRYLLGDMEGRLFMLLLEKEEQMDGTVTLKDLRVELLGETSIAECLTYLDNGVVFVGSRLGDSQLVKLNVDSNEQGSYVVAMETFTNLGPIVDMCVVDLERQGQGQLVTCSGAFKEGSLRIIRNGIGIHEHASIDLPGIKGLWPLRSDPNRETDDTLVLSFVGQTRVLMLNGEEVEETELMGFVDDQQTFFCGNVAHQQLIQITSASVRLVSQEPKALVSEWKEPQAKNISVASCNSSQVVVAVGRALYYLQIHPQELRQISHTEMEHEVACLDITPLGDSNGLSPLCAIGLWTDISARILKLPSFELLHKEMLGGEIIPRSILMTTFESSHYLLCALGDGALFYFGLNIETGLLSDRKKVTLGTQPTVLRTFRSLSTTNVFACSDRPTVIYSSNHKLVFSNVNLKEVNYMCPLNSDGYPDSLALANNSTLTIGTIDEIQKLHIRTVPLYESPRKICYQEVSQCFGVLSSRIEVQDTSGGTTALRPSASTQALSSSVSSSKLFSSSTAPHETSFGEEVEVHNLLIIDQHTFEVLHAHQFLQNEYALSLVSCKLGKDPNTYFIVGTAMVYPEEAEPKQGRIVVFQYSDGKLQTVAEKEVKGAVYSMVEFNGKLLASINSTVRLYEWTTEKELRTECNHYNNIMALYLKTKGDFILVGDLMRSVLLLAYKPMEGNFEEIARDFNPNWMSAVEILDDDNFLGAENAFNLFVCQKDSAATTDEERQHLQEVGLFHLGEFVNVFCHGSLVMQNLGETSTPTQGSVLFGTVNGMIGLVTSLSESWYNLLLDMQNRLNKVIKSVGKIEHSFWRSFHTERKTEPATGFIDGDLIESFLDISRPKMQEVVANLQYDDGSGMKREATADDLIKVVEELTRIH
Sequence of IKZF1 (Q13422 whole entry): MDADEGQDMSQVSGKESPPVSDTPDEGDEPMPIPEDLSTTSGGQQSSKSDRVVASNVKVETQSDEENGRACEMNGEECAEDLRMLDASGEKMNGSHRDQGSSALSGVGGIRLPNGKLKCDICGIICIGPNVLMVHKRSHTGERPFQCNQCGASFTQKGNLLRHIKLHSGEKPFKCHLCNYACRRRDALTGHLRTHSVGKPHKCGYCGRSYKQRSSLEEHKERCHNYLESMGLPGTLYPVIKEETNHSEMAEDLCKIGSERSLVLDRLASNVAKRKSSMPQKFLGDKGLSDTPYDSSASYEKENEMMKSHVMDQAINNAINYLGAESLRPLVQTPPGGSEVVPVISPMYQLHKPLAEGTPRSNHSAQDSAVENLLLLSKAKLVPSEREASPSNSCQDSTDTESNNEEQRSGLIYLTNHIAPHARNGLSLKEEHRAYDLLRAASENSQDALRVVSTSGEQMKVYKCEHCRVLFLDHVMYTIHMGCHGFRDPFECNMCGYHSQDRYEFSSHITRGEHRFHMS
Sequence of IKZF1 (Q96SW2 whole entry): as the sequence (Q96SW2 whole entry) above
Sequence of IKZF1 (Q16531 whole entry partner): as the sequence (Q16531 whole entry partner) above
Sequence of IKZF3 (Q9UKT9 whole entry): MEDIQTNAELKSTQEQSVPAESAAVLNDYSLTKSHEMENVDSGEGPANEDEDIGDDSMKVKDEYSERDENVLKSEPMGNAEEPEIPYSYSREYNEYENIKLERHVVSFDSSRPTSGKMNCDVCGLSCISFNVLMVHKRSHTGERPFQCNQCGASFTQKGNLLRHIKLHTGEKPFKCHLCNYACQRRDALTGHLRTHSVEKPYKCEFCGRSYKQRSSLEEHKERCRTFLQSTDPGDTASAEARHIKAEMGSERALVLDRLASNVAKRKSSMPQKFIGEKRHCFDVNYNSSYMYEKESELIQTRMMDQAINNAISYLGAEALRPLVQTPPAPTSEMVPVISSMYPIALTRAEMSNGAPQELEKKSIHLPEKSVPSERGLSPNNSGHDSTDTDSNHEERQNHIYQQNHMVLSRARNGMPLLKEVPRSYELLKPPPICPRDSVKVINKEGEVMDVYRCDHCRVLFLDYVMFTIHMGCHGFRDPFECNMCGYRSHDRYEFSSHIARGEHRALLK
Sequence of IKZF3 (Q96SW2 whole entry): as the sequence (Q96SW2 whole entry) above
Sequence of IKZF3 (Q16531 whole entry partner): as the sequence (Q16531 whole entry partner) above

In the case of `O=C1CCC(N2Cc3cc(CN4CCN(C(c5ccc(F)cc5)c5ccc(F)cc5)CC4)cc(F)c3C2=O)C(=O)N1` (stereo not shown) [GT-03565, 3-(5-((4-(bis(4-fluorophenyl)methyl)piperazin-1-yl)methyl)-7-fluoro-1-oxoisoindolin-2-yl)piperidine-2,6-dione], the “substrate protein remaining % IKZF1” value in assay [1] is “B (B represents substrate protein remaining % > 50%)”. For the same compound, the “substrate protein remaining % IKZF3” value in assay [2] is recorded as “B (B represents substrate protein remaining % > 50%)”. For the same compound, in assay [3], the “substrate protein remaining % GSPT1” value is listed as “A (A represents 0% ≤ substrate protein remaining % ≤ 50%)”. For the same compound, in assay [4], the IC50 is less than 500 nM.
Take `O=C1CCC(N2Cc3c(ccc(CN4CCN(C(c5ccc(Cl)cc5)c5ccc(Cl)cc5)CC4)c3F)C2=O)C(=O)N1` (stereo not shown) [GT-03567, 3-(5-((4-(bis(4-chlorophenyl)methyl)piperazin-1-yl)methyl)-4-fluoro-1-oxoisoindolin-2-yl)piperidine-2,6-dione]: the “substrate protein remaining % IKZF1” value in assay [1] is “B (B represents substrate protein remaining % > 50%)”. The “substrate protein remaining % IKZF3” value in assay [2] was “A (A represents 0% ≤ substrate protein remaining % ≤ 50%)”. Also, the “substrate protein remaining % GSPT1” value in assay [3] was “A (A represents 0% ≤ substrate protein remaining % ≤ 50%)”. Further, in assay [4], the IC50 was 1000 to 1900 nM.
Consider `O=C1CCC(N2Cc3cc(CN4C5CC4CN(C(c4ccccc4)c4ccccc4)C5)ccc3C2=O)C(=O)N1` (stereo not shown) [GT-03569, 3-(5-((3-benzhydryl-3,6-diazabicyclo[3.1.1]heptan-6-yl)methyl)-1-oxoisoindolin-2-yl)piperidine-2,6-dione], for which the “substrate protein remaining % IKZF1” value in assay [1] was “B (B represents substrate protein remaining % > 50%)”. For the same compound, in assay [2], the “substrate protein remaining % IKZF3” value is on record as “A (A represents 0% ≤ substrate protein remaining % ≤ 50%)”. Also, the “substrate protein remaining % GSPT1” value in assay [3] is given as “A (A represents 0% ≤ substrate protein remaining % ≤ 50%)”. This compound yielded an IC50 in assay [4] of 500 to 1000 nM.
Regarding `O=C1CCC(N2Cc3cc(CN4C[C@H]5C[C@@H]4CN5C(c4ccccc4)c4ccccc4)ccc3C2=O)C(=O)N1` (stereo partly drawn) [GT-03570, 3-(5-(((1R,4R)-5-benzhydryl-2,5-diazabicyclo[2.2.1]heptan-2-yl)methyl)-1-oxoisoindolin-2-yl)piperidine-2,6-dione], in assay [1], the “substrate protein remaining % IKZF1” value is “B (B represents substrate protein remaining % > 50%)”. For the same compound, in assay [2], the “substrate protein remaining % IKZF3” value was “B (B represents substrate protein remaining % > 50%)”. In assay [3], the “substrate protein remaining % GSPT1” value is “A (A represents 0% ≤ substrate protein remaining % ≤ 50%)”. This compound had an IC50 in assay [4] of less than 500 nM.
As for `C[C@@H]1CN(C(c2ccccc2)c2ccccc2)CCN1Cc1ccc2c(c1)CN(C1CCC(=O)NC1=O)C2=O` (stereo partly drawn) [GT-03571, 3-(5-(((R)-4-benzhydryl-2-methylpiperazin-1-yl)methyl)-1-oxoisoindolin-2-yl)piperidine-2,6-dione], the “substrate protein remaining % IKZF1” value in assay [1] is listed as “B (B represents substrate protein remaining % > 50%)”. The “substrate protein remaining % IKZF3” value in assay [2] is “B (B represents substrate protein remaining % > 50%)”. For the same compound, the “substrate protein remaining % GSPT1” value in assay [3] was “A (A represents 0% ≤ substrate protein remaining % ≤ 50%)”. In addition, the IC50 in assay [4] is less than 500 nM.
Consider `C[C@@H]1CN(C(c2ccccc2)c2ccccc2)CCN1Cc1ccc2c(c1F)CN(C1CCC(=O)NC1=O)C2=O` (stereo partly drawn) [GT-03574, 3-(5-(((R)-4-benzhydryl-2-methylpiperazin-1-yl)methyl)-4-fluoro-1-oxoisoindolin-2-yl)piperidine-2,6-dione], for which, in assay [1], the “substrate protein remaining % IKZF1” value is given as “B (B represents substrate protein remaining % > 50%)”. The “substrate protein remaining % IKZF3” value in assay [2] is recorded as “B (B represents substrate protein remaining % > 50%)”. Also, the “substrate protein remaining % GSPT1” value in assay [3] is given as “A (A represents 0% ≤ substrate protein remaining % ≤ 50%)”. The compound further had an IC50 in assay [4] of 500 to 1000 nM.
For `O=C1CCC(N2Cc3cc(CN4C5CC4CN(C(c4ccccc4)c4ccccc4)C5)cc(F)c3C2=O)C(=O)N1` (stereo not shown) [GT-03575, 3-(5-((3-benzhydryl-3,6-diazabicyclo[3.1.1]heptan-6-yl)methyl)-7-fluoro-1-oxoisoindolin-2-yl)piperidine-2,6-dione], the “substrate protein remaining % IKZF1” value in assay [1] was “B (B represents substrate protein remaining % > 50%)”. Further, the “substrate protein remaining % IKZF3” value in assay [2] is on record as “B (B represents substrate protein remaining % > 50%)”. Further, the “substrate protein remaining % GSPT1” value in assay [3] is on record as “A (A represents 0% ≤ substrate protein remaining % ≤ 50%)”. In assay [4], this compound showed an IC50 of 500 to 1000 nM.
For the compound `O=C1CCC(N2Cc3c(CN4CCN(C(c5ccc(F)cc5)c5ccc(F)cc5)CC4)cccc3C2=O)C(=O)N1` (stereo not shown) [GT-03647, 3-(4-((4-(bis(4-fluorophenyl)methyl)piperazin-1-yl)methyl)-1-oxoisoindolin-2-yl)piperidine-2,6-dione], in assay [1], the “substrate protein remaining % IKZF1” value is “B (B represents substrate protein remaining % > 50%)”. Also, in assay [2], the “substrate protein remaining % IKZF3” value is reported as “B (B represents substrate protein remaining % > 50%)”. Moreover, the “substrate protein remaining % GSPT1” value in assay [3] is recorded as “A (A represents 0% ≤ substrate protein remaining % ≤ 50%)”. The compound further displayed an IC50 in assay [4] of 500 to 1000 nM.
For the compound `O=C1CCC(N2Cc3cc(CN4C[C@@H]5C[C@H]4CN5C(c4ccccc4)c4ccccc4)ccc3C2=O)C(=O)N1` (stereo partly drawn) [GT-03721, 3-(5-(((1S,4S)-5-benzhydryl-2,5-diazabicyclo[2.2.1]heptan-2-yl)methyl)-1-oxoisoindolin-2-yl)piperidine-2,6-dione], in assay [1], the “substrate protein remaining % IKZF1” value is given as “B (B represents substrate protein remaining % > 50%)”. In assay [2], the “substrate protein remaining % IKZF3” value was “A (A represents 0% ≤ substrate protein remaining % ≤ 50%)”. In assay [3], the “substrate protein remaining % GSPT1” value is on record as “A (A represents 0% ≤ substrate protein remaining % ≤ 50%)”. This compound also showed an IC50 in assay [4] of less than 500 nM.
As to `O=C1CCC(N2Cc3cc(CN4CC5CCC(C4)N5C(c4ccccc4)c4ccccc4)ccc3C2=O)C(=O)N1` (stereo not shown) [GT-03722, 3-(5-((8-benzhydryl-3,8-diazabicyclo[3.2.1]octan-3-yl)methyl)-1-oxoisoindolin-2-yl)piperidine-2,6-dione], in assay [1], the “substrate protein remaining % IKZF1” value is given as “A (A represents 0% ≤ substrate protein remaining % ≤ 50%)”. Also, the “substrate protein remaining % IKZF3” value in assay [2] is listed as “A (A represents 0% ≤ substrate protein remaining % ≤ 50%)”. In addition, the “substrate protein remaining % GSPT1” value in assay [3] was “A (A represents 0% ≤ substrate protein remaining % ≤ 50%)”. This compound also returned an IC50 in assay [4] of less than 500 nM.
For the compound `O=C1CCC(N2C(=O)c3ccc(C(=O)N4CCN(C(c5cc(F)cc(F)c5)c5cc(F)cc(F)c5)CC4)cc3C2=O)C(=O)N1` (stereo not shown) [GT-06598, 5-(4-(bis(3,5-difluorophenyl)methyl)piperazine-1-carbonyl)-2-(2,6-dioxopiperidin-3-yl) isoindoline-1,3-dione], the “substrate protein remaining % IKZF1” value in assay [1] was “B (B represents substrate protein remaining % > 50%)”. The “substrate protein remaining % IKZF3” value in assay [2] is on record as “B (B represents substrate protein remaining % > 50%)”. The “substrate protein remaining % GSPT1” value in assay [3] was “A (A represents 0% ≤ substrate protein remaining % ≤ 50%)”.
As for `O=C1CCC(N2C(=O)c3ccc(CN4CCN(C(c5ccccc5)c5ccc(Br)cc5)CC4)cc3C2=O)C(=O)N1` (stereo not shown) [GT-06639, 5-((4-((4-bromophenyl) (phenyl)methyl)piperazin-1-yl)methyl)-2-(2,6-dioxopiperidin-3-yl) isoindoline-1,3-dione], the “substrate protein remaining % IKZF1” value in assay [1] is “A (A represents 0% ≤ substrate protein remaining % ≤ 50%)”. Besides, in assay [2], the “substrate protein remaining % IKZF3” value is listed as “A (A represents 0% ≤ substrate protein remaining % ≤ 50%)”. Further, the “substrate protein remaining % GSPT1” value in assay [3] is on record as “A (A represents 0% ≤ substrate protein remaining % ≤ 50%)”.
